Measurements from patent publication US7452680B2, “MCT1 transporters expressed in blood brain barrier cells” (XenoPort, Inc., priority 2004, dated 2008).

Assays:
[1] = molecular target: T1, hMCT1-rCD147 fusion protein (Homo sapiens, UniProt P53985, D490E); assay: Competitive binding and uptake assay, inhibition of 14C-lactate uptake (FIG. 13); format: cell-based; design: rCD147 (rat CD147/basigin) fusion partner; expressed in transfected cells; settings: cells expressing the fusion protein vs cells endogenously expressing hMCT1
T1 sequence (P53985 with tags, fused parts or gaps D490E): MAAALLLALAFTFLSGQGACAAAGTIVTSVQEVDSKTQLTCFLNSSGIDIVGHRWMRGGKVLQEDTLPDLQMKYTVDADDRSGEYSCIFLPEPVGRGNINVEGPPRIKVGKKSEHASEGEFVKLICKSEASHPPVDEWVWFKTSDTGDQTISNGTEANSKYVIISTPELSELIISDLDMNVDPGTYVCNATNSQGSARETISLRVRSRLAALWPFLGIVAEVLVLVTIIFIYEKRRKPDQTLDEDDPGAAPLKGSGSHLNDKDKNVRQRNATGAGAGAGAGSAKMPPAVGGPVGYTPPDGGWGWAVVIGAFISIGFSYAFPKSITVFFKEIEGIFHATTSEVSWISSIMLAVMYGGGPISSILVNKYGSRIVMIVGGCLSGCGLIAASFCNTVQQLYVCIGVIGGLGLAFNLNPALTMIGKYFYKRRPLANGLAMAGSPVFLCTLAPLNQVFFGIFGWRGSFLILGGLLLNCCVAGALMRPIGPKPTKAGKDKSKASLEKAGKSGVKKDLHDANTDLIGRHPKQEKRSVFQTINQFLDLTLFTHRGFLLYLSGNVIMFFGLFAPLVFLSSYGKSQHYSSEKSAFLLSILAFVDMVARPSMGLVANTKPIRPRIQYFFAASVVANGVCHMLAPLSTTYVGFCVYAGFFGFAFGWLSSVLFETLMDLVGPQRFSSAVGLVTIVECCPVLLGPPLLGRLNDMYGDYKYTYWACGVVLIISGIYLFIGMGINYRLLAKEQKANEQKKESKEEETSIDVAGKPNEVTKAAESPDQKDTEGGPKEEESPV
Method: To determine whether a compound interacts with the MCT1 transporter, a competition-binding assay was developed. This assay measures how different concentrations of a test compound block the uptake of a radiolabeled substrate such as lactate. The half-maximal inhibitory concentration (IC50) for inhibition of transport of a substrate by a test compound is an indication of the affinity of the test compound for the MCT1 transporter. Competition binding studies were performed as follows. HEK-PEAK cells were plated in 96-well plates at 100,000 cells/well and incubated at 37° C. for 24 hours. Radiolabeled ^14C-lactic acid (˜50,000 cpm/well) was added to each well in the presence and absence of various concentrations of unlabeled lactic acid in duplicate or triplicate. Competition experiments were performed in an MES-based saline buffer adjusted to pH 6.8. Plates were incubated at room temperature for 2 minutes. Excess radiolabeled substrate was removed and cells were washed three times with a 96-well plate washer with cold assay buffer. Scintillation fluid was added to each well, the plates were sealed and counted in a 96-well plate-based scintillation counter. Data were graphed and analyzed using non-linear regression analysis with Prism Software (GraphPad, Inc., San Diego, Calif.). Competition binding in HEK-PEAK cells is illustrated in FIG. 4B.
To confirm the pharmacology of the hMCT1-rCD147 fusion proteins was the same as that of the unmodified version of hMCT1, the hMCT1-rCD147-expressing cells lines were tested in a competitive binding and uptake assay. Eight different MCT1 substrates were tested for their ability to inhibit the uptake of ^14C-lactate into isolated cell lines inducibly or constitutively expressing hMCT1-rCD147 fusion protein and into cells endogenously expressing hMCT1.

MCT1 [2] = molecular target: T2, MCT1 (Homo sapiens, UniProt P53985); settings: cited from earlier work
T2 sequence (P53985 1-500): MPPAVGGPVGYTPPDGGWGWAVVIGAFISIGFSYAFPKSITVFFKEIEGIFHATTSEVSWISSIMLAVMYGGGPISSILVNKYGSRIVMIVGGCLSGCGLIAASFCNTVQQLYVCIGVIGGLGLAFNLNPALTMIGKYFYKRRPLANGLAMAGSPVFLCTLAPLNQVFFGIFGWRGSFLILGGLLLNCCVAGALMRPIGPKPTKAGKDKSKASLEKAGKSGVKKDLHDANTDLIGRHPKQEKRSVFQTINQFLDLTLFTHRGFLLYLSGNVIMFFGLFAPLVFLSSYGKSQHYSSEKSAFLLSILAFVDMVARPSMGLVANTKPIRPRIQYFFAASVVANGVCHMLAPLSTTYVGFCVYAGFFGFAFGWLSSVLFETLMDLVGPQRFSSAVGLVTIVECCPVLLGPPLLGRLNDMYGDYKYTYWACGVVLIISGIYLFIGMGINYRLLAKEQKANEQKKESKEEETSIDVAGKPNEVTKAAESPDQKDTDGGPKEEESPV
T2 sequence (P35613 140-385 partner limits assumed): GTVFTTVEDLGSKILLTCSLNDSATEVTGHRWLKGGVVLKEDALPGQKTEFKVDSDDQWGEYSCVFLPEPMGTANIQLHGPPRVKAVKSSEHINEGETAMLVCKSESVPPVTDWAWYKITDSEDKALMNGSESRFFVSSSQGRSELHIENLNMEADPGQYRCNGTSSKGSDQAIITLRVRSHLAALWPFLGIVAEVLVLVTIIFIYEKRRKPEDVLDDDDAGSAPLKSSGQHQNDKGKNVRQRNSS

MCT1 [3] = molecular target: T2, MCT1; assay: 14C-lactate uptake assay in HEK-TREx cells transfected with tet-MCT1 inducible construct; format: cell-based; design: expressed in transfected cells; settings: tet-induced vs non-induced
Method: Human MCT1 (hMCT1) is expressed at high levels in most mammalian cell lines. hMCT1 is a high capacity transporter, so low levels of hMCT1 expression may result in significant substrate transport. To control the level of hMCT expression, an inducible tet promoter-hMCT1 expression construct was prepared using the Gateway plasmid cloning system following manufacturers instructions (Invitrogen). The tet-MCT1 inducible construct was transfected into HEK-TREx cells using Fugene transfection following manufacturers instructions (Roche Biosciences). When the transfected cells were tested in an uptake assay, the amount of tetracycline-inducible MCT1 -mediated transport of ^14C-lactate was about 20% higher than the level of endogenous uptake seen in non-induced cells. The addition of an excess of unlabeled lactate competed with the uptake of ^14C-lactate.

MCT1 [4] = molecular target: T2, MCT1; assay: Inducible uptake by LLCPK-TREx cell line containing pTREx-hMCT1 (FIG. 10); format: cell-based; design: expressed in transfected cells; host or cells: LLCPK-TREx cells; settings: vs non-tet treated (un-induced) or parental LLCPK cells; pH 6.8, 2 minutes
Method: FIG. 10 depicts the results of an uptake experiment showing inducible uptake of (A) ^14C-lactate and (B) thiopheneglyoxylic acid by the LLCPK-TREx cell line containing plasmid pTREx-hMCT1. Uptake of ^14C-lactate was measured as follows: radiolabeled ^14C-lactic acid (˜50,000 cpm/well) was added to each well in triplicate. Experiments were performed in an MES-based saline buffer adjusted to pH 6.8. Plates were incubated at room temperature for 2 minutes. Excess radiolabeled substrate was removed and cells were washed three times with a 96-well plate washer with cold assay buffer. Scintillation fluid was added to each well, the plates were sealed and counted in a 96-well plate-based scintillation counter. Uptake of thiopheneglyoxylic acid was measured similarly to ^14C-lactate, except cells were washed and compound extracted with a 50% ethanol solution. Levels of extracted thiopheneglyoxylate were measured using mass spectroscopy as described above. Negative control values were determined by measuring the uptake into non-tet treated (un-induced) or parental LLCPK (constitutive) cells.

MCT1 [5] = molecular target: T2, MCT1; assay: 14C-lactate uptake in Xenopus oocytes injected with MCT1 cRNA (FIG. 2); format: cell-based; design: expressed in transfected cells; host or cells: Xenopus oocytes injected with MCT1 cRNA; settings: oocytes expressing MCT1 vs oocytes expressing MCT4 or noninjected control oocytes
MCT1 [6] = molecular target: T2, MCT1; assay: Uptake of tritiated GHB, cells over expressing MCT1 protein (FIG. 14); format: cell-based; design: expressed in transfected cells; host or cells: LLCPK-TREx cells; settings: compared with control cells
Method: (§1) To determine whether […] (GHB) is a substrate for MCT1, an uptake assay was performed using tritiated […].

[7] = molecular target: T1, hMCT1-rCD147 fusion protein; assay: Uptake of tritiated GHB, cells expressing hMCT1-rCD147 fusion protein (FIG. 14); format: cell-based; design: rCD147 (rat CD147/basigin) fusion partner; expressed in transfected cells; host or cells: LLCPK-TREx cells (pTREx-hMCT1-rCD147 inducible, pMO-hMCT1-rCD147 constitutive); settings: inducibly or constitutively expressing cells, compared with uninduced or control cells
Method: as §1

PgP = PgP (Homo sapiens, UniProt P08183); assay: Cellular transwell monolayer efflux assay, MDCK cells transfected with TREx-PgP (FIG. 8)
Method: A third type of efflux transporter assay is the cellular transwell monolayer efflux assay. […] The cells form a polarized monolayer. The transwell dishes have apical and basolateral chambers that are separated by the filter membrane on which the polarized monolayer is situated. Assays are performed by placing a test compound in either the apical or basolateral chamber, followed by sampling the opposite chamber after a predetermined period of time such as 60-120 minutes and measuring the amount of the test compound. The test compound can be measured by methods such as radiolabel detection or LC-MS-MS analysis. Assays are performed in the presence and absence of an efflux transporter inhibitor or competitor. Efflux transporter inhibitors or competitors increase apical to basolateral transport and decrease basolateral to apical transport of compounds that are efflux transporter substrates. Apparent permeability (Papp) of test compounds is measured. […] Test compounds that generate ratios between 1.5 and 2.0 require additional testing to determine if they are efflux transporter substrates.
MDCK cells transfected with the tetracycline-inducible TREx-PgP expression vector were seeded on polycarbonate filter membranes in transwell dishes and grown for 3-5 days, yielding a polarized monolayer with tight junctions between cells. […] The left set of bars depicts apical to basolateral transport, while the right set of bars depicts basolateral to apical transport.

[8] = 2.5 nM 3H-vinblastine, in the presence of 250 μM verapamil

Sequence of PgP (P08183 whole entry): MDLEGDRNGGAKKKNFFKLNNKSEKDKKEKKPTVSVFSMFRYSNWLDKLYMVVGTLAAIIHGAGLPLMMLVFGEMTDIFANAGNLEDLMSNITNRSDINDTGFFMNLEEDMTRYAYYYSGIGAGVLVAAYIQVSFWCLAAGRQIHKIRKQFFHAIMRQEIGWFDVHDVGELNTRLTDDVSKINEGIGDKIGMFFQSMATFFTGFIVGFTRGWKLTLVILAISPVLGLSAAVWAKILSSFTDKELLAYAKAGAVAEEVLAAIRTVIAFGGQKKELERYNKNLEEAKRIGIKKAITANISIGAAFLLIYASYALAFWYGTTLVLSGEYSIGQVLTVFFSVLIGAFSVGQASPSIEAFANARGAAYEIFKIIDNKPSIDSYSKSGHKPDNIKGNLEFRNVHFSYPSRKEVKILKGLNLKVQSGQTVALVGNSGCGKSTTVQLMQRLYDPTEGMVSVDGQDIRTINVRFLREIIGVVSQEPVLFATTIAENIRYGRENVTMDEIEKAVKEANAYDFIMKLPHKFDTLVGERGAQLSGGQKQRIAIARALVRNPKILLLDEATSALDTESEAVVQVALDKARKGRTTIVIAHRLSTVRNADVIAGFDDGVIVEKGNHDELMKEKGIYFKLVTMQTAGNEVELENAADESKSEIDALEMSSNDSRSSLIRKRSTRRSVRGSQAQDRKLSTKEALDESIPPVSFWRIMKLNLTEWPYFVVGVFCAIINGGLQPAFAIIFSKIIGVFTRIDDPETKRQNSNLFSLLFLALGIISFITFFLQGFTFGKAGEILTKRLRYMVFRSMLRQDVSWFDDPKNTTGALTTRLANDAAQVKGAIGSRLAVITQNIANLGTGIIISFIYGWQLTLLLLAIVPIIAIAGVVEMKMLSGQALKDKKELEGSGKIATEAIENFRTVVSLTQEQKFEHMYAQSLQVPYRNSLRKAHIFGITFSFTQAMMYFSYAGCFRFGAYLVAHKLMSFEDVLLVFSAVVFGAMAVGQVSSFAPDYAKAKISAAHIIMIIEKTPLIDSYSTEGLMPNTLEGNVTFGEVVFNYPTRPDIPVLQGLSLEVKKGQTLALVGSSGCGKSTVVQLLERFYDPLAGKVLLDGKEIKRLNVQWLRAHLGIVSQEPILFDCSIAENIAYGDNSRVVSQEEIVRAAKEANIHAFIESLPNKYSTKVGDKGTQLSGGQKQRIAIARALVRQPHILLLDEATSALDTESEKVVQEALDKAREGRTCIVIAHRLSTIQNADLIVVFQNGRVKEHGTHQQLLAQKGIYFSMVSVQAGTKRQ

O=C(O)c1ccccc1 [Compound 5, benzoic acid]
affinity for the MCT1-rCD147 fusion protein compared with hMCT1 alone [1]: higher affinity

O=C(O)c1cc(/N=N/c2ccc(S(=O)(=O)Nc3ccccn3)cc2)ccc1O [Sulfasalazine]
Reported Affinity for MCT1 (MCT1 [2]): 0.15 mM

CC(C)C[C@H](O)C(=O)O [Compound 2, L-alpha-hydroxy-isocaproic acid]
affinity for the MCT1-rCD147 fusion protein compared with hMCT1 alone [1]: higher affinity

CC(=O)C(=O)O [Pyruvic Acid]
Reported Affinity for MCT1 (MCT1 [2]): 1 mM

O=C(O)c1ccccc1O [Salicylic Acid]
Reported Affinity for MCT1 (MCT1 [2]): >5 mM

CC(O)C(=O)O (stereo not drawn) [Lactic Acid, lactic acid]
Reported Affinity for MCT1 (MCT1 [2]): 2 mM | affinity for the MCT1-rCD147 fusion protein compared with hMCT1 alone [1]: higher affinity

CC1(C)S[C@@H]2[C@H](NC(=O)C(C(=O)Oc3ccc4c(c3)CCC4)c3ccccc3)C(=O)N2[C@H]1C(=O)O (stereo partly drawn) [Carindicillin]
Reported Affinity for MCT1 (MCT1 [2]): >5 mM

^14C-lactic acid [^14C-lactate]
tetracycline-inducible MCT1-mediated transport, higher than endogenous uptake in non-induced cells (MCT1 [3]): about 20% | MCT1 substrate uptake upon induction with tetracycline (MCT1 [4]): significant increase | 14C-lactate uptake (MCT1 [5]): higher levels

O=C(O)Cc1ccccc1 [Compound 8, phenylacetic acid]
affinity for the MCT1-rCD147 fusion protein compared with hMCT1 alone [1]: higher affinity

CCC(O)C(=O)O (stereo not drawn) [GHB, α-hydroxybutyrate]
uptake of labeled GHB (MCT1 [6]): increased uptake | uptake of labeled GHB [7]: increased uptake

O=C(O)C(=O)c1cccs1 [2-Thiophene glyoxylate]
Reported Affinity for MCT1 (MCT1 [2]): 3 mM | MCT1 substrate uptake upon induction with tetracycline (MCT1 [4]): significant increase | affinity for the MCT1-rCD147 fusion protein compared with hMCT1 alone [1]: higher affinity

CCCC(=O)O [Butyric Acid]
Reported Affinity for MCT1 (MCT1 [2]): 8 mM

CC[C@]1(O)C[C@@H]2CN(CCc3c([nH]c4ccccc34)[C@@](C(=O)OC)(c3cc4c(cc3OC)N(C)[C@H]3[C@@](O)(C(=O)OC)[C@H](OC(C)=O)[C@]5(CC)C=CCN6CC[C@]43[C@@H]65)C2)C1 [^3H-vinblastine]
Apical to basolateral transport (PgP; [8]): strongly increased | basolateral to apical transport (PgP; [8]): strongly decreased | efflux transporter substrate status (PgP; conclusion from transport with and without verapamil): substrate of PgP

O=C(O)c1cccnc1 [Nicotinic Acid, nicotinic acid]
Reported Affinity for MCT1 (MCT1 [2]): 4 mM | affinity for the MCT1-rCD147 fusion protein compared with hMCT1 alone [1]: higher affinity

O=C(CCc1ccc(O)cc1)c1c(O)cc(O)cc1O [Phloretin]
Reported Affinity for MCT1 (MCT1 [2]): 0.2 mM
